This note sets out measurements from article PMC10745061 (Marine Drugs, 2023).

One experiment deals with E. coli MDR CI 1057. The note with it: Mueller–Hinton broth supplemented with 0.9% NaCl, 37 °C. The procedure: Resistance induction experiments were performed using the previously described method. Briefly, on day one, the overnight culture of wild-type bacteria was diluted with the 2× MH broth supplemented with 1.8% NaCl to reach a final cell concentration of 10^6 CFU/mL.

For experiment [1], the system named is E. coli strains with the MCR-1-mediated colistin resistance. The experiment can be described thus: MIC against strains with MCR-1-mediated colistin resistance. Type of experiment: cell-based, Escherichia coli. The note with it: two strains with MCR-1-mediated colistin resistance; medium not stated. The source says: The results were expressed as the median values determined on the basis of at least three independent experiments performed in triplicate.

Turning to polymyxin B [reference compound], the “Initial MIC value before resistance selection” value with E. coli MDR CI 1057 is 0.125 µM. In addition, the “MIC against MCR-1 colistin-resistant strains” value in experiment [1] is 2 µM.
